Values quoted from earlier work as cited in patent US7642353B2, “Process of making crystalline aripiprazole” (Synthon BV, priority 2004, dated 2010).

SMILES	hygroscopicity (solid form, as taught by WO 03/26659)	water uptake (in 24 hours)
O=C1CCc2ccc(OCCCCN3CCN(c4cccc(Cl)c4Cl)CC3)cc2N1 [Type I aripiprazole, 7-[4-[4-(2,3-dichlorophenyl)-1-piperazinyl]butoxy]-3,4-dihydrocarbostyril]	significantly hygroscopic	–
O=C1CCc2ccc(OCCCCN3CCN(c4cccc(Cl)c4Cl)CC3)cc2N1 [Anhydrous Form B, 7-[4-[4-(2,3-dichlorophenyl)-1-piperazinyl]butoxy]-3,4-dihydrocarbostyril]	–	less than 0.4%
